Measured values published in patent publication US8895032B2, “Dendritic nano-antioxidants” (Central Michigan University, priority 2009, dated 2014).
Several values for one entry are separate records, joined by “and”; a condition that tells them apart may be missing. Identical values can stand only once. Like-named read-outs stand apart in the source and are kept apart here.

Experiments:
[1] = tested on: Human LDL; test: Protection of LDL from AAPH oxidation (agarose gel electrophoresis); type: biochemical; details: 37° C.
[2] = ABTS radical cation decolorization assay; type: biochemical; details: for IC50: final concentration in the cuvet, read-out: concentration at which 50% inhibition of ABTS•+ was observed; for Slope of % decrease in absorbance at 6 min versus antioxidant concentration: linear regression, concentration in μM; for TEAC: slope divided by that of Trolox, % decrease in A734 at 6 min, ethanol
Source text: We have tested AO activity of G1 (13) using ABTS as a radical source using a previously reported spectroscopic assay. The AO activity of the G1 (13) was compared to those of syringaldehyde, gallic acid, and vitamin C. If the phenolic OH group is the radical scavenging site, the expected AO activity of the G1 (13) should be 4 fold higher than that of syringaldehyde and 1.3 fold higher than that of gallic acid (which has three phenolic OH groups).
ABTS radical cation decolorization assay was used as previously described (Ozgen, et al. J. Agric. Food Chem. 2006, 54, 1151-1157, incorporated herein by reference in its entirety). Like the DPPH assay, this was also a decolorization assay and measured absorbance decrease at 734 nm as the ABTS radical (ABTS•+) is quenched by the antioxidant. The solvent used for the assay was ethanol. ABTS reagent was added to 1.0 mL solvent in a cuvet to bring the absorbance to 0.7. A 10 μL sample of antioxidant was then added, mixed, and the absorbance monitored at 734 nm for 6 min. Antioxidant concentrations were 14.4 μM Trolox, 11.4 μM ascorbic acid, 15.4 μM syringaldehyde, and 3 μM compound 1. The % decrease in absorbance at 6 min was plotted against antioxidant concentrations. The gradient of the line obtained by linear regression for a given antioxidant was divided by that obtained for Trolox to yield Trolox equivalent antioxidant (TEAC) values. All samples were made in ethanol and run in triplicates and at room temperature.

[3] = DPPH radical assay; details: for time to reach plateau / steady state with DPPH•: 50 μM syringaldehyde, 12.5 μM Trolox and ascorbic acid, methanol, room temperature, 515 nm; for IC50: read-out: DPPH IC50 at 120 min, Example 15

SMILES	Antioxidant Capacity Relative to Trolox, ABTS [2]	IC50 [2]	Slope of % decrease in absorbance at 6 min versus antioxidant concentration [2]	TEAC [2]	# of DDPH• reduced per antioxidant molecule (1/stoichiometry) [3]	Antioxidant Capacity Relative to Trolox, DPPH [3]	time to reach plateau / steady state with DPPH• ([3]; 5 μM compound 1)	IC50 [3]	other results
COc1cc(CN(Cc2ccc(CN(Cc3cc(OC)c(O)c(OC)c3)Cc3cc(OC)c(O)c(OC)c3)cc2)Cc2cc(OC)c(O)c(OC)c2)cc(OC)c1O [Compound 1]	8.5	~1.5 µM	33.9	8.48	8.8	4.9	approximately 45 min	4 µM	protection of LDL from AAPH free radicals (anodic migration) ([1]; 10 mM AAPH, 18 h): most efficient in protecting LDL; only concentration effective in protecting LDL ([1]; 20 mM AAPH, 21 h): 30 µM; AO activity higher than that of gallic acid ([2]; ABTS as radical source): 3 fold; AO activity higher than that of syringaldehyde ([2]; ABTS as radical source): 7 fold; AO activity higher than that of vitamin C ([2]; ABTS as radical source): 7.6 fold; ABTS, times better than ascorbic acid ([2]; based on TEAC): 9.4 times; ABTS, times better than syringaldehyde ([2]; based on TEAC): 8.7 times; DPPH• remaining at plateau ([3]; 5 μM compound 1): 46%; DPPH• remaining in two minutes ([3]; 5 μM compound 1): 60%; decrease in DDPH• ([3]; 5 μM solution): 60%; Antioxidant Capacity Relative to Trolox, DPPH ([3]; listed as compound 1): ~5 and 4.9; DPPH antioxidant capacity, times better than ascorbic acid ([3]; listed as compound 1): ~5 times and 4.9 times
Cc1c(C)c2c(c(C)c1O)CCC(C)(C(=O)O)O2 (stereo not drawn) [Trolox, 6-hydroxy-2,5,7,8-tetramethylchroman-2-carboxylic acid]	1	~10 µM	4	1	1.8	1	≤ 2 min	30 µM	protection of LDL at all antioxidant concentrations ([1]; 1-30 μM, 20 mM AAPH, 21 h): ineffective; time to reach a plateau of ABTS•+ absorbance suppression ([2]; 14.4 μM Trolox, 11.4 μM ascorbic acid): one
